Source: US10450297B2, “Sulfonyl amide derivatives for the treatment of abnormal cell growth” (Pfizer, Inc., priority 2007, dated 2019)

Target: FAK kinase (catalytic construct FAK(410-689)) (Homo sapiens (Human), UniProt Q05397)
Experiment: FAKcd kinase ELISA (inhibition of poly-glu-tyr phosphorylation by FAK(410-689))
Assay type: biochemical
Conditions: 50 μM final ATP

Chain of FAK kinase (catalytic construct FAK(410-689)) (Q05397 410-689): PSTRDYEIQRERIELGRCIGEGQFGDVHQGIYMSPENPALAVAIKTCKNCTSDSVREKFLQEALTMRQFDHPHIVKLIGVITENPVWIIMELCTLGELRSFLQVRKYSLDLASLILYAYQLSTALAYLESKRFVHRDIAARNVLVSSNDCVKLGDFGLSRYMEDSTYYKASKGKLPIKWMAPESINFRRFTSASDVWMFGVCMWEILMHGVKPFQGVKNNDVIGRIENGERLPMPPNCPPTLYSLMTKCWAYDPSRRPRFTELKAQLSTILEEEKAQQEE

IC50 [nM] | Structure (SMILES)
1.94 | CN(c1cccnc1CNc1nc(Nc2cc(C(N)=O)ccc2F)ncc1C(F)(F)F)S(C)(=O)=O [Compound 378, 4-fluoro-3-({4-[({3-[methyl(methylsulfonyl)amino]pyridin-2-yl}methyl)amino]-5-(trifluoromethyl)pyrimidin-2-yl}amino)benzamide]
4.78 | CN(c1cccc(CNc2nc(Nc3ccc(F)c(C(N)=O)c3)ncc2C(F)(F)F)c1)S(C)(=O)=O [Compound 379, 2-fluoro-5-{[4-({3-[methyl(methylsulfonyl)amino]benzyl}amino)-5-(trifluoromethyl)pyrimidin-2-yl]amino}benzamide]
1.6 | CN(c1ncccc1CNc1nc(Nc2ccc(F)c(C(N)=O)c2)ncc1C(F)(F)F)S(C)(=O)=O [Compound 380, 2-fluoro-5-({4-[{{2-[methyl(methylsulfonyl)amino]pyridin-3-yl}methyl)amino]-5-(trifluoromethyl)pyrimidin-2-yl}amino)benzamide]
4.55 | CN(c1cccnc1CNc1nc(Nc2ccc(F)c(C(N)=O)c2)ncc1C(F)(F)F)S(C)(=O)=O [Compound 381, 2-fluoro-5-({4-[({3-[methyl(methylsulfonyl)amino]pyridin-2-yl}methyl)amino]-5-(trifluoromethyl)pyrimidin-2-yl}amino)benzamide]
10.7 | CN(c1nccnc1CNc1nc(Nc2ccc(F)c(C(N)=O)c2)ncc1C(F)(F)F)S(C)(=O)=O [Compound 382, 2-fluoro-5-({4-[({3-[methyl(methylsulfonyl)amino]pyrazin-2-yl}methyl)amino]-5-(trifluoromethyl)pyrimidin-2-yl}amino)benzamide]
< 0.595 | CN(c1ncccc1CNc1nc(Nc2ccc(CNCCO)cc2)ncc1C(F)(F)F)S(C)(=O)=O [Compound 383, N-{3-[({2-[(4-{[(2-hydroxyethyl)amino]methyl}phenyl)amino]-5-(trifluoromethyl)pyrimidin-4-yl}amino)methyl]pyridin-2-yl}-N-methylmethane-sulfonamide]
< 0.595 | CC(C)NCc1ccc(Nc2ncc(C(F)(F)F)c(NCc3cccnc3N(C)S(C)(=O)=O)n2)cc1 [Compound 384, N-[3-({[2-({4-[(isopropylamino)methyl]phenyl}amino)-5-(trifluoromethyl)pyrimidin-4-yl]amino}methyl)pyridin-2-yl]-N-methylmethane-sulfonamide]
1.44 | CC(=O)Nc1cccc(Nc2ncc(C(F)(F)F)c(NCc3nccnc3N(C)S(C)(=O)=O)n2)c1 [Compound 385, N-[3-({4-[({3-[methyl(methylsulfonyl)amino]pyrazin-2-yl}methyl)amino]-5-(trifluoromethyl)pyrimidin-2-yl}amino)phenyl]acetamide]
1.65 | CC(=O)Nc1cccc(Nc2ncc(C(F)(F)F)c(NCc3ncccc3N(C)S(C)(=O)=O)n2)c1 [Compound 386, N-[3-({4-[({3-[methyl(methylsulfonyl)amino]pyridin-2-yl}methyl)amino]-5-(trifluoromethyl)pyrimidin-2-yl}amino)phenyl]acetamide]
< 0.595 | COCCNCc1ccc(Nc2ncc(C(F)(F)F)c(NCc3cccnc3N(C)S(C)(=O)=O)n2)cc1 [Compound 388, N-{3-[({2-((4-{[(2-methoxyethyl)amino]methyl}phenyl)amino]-5-(trifluoromethyl)pyrimidin-4-yl}amino)methyl]pyridin-2-yl}-N-methylmethane-sulfonamide]
0.746 | CN(c1ncccc1CNc1nc(Nc2ccc(C#N)c(O)c2)ncc1C(F)(F)F)S(C)(=O)=O [Compound 390, N-{3-[({2-[(4-cyano-3-hydroxyphenyl)amino]-5-(trifluoromethyl)pyrimidin-4-yl}amino)methyl]pyridin-2-yl}-N-methylmethane-sulfonamide]
1.24 | CN(c1nccnc1CNc1nc(Nc2ccc(C#N)c(O)c2)ncc1C(F)(F)F)S(C)(=O)=O [Compound 391, N-{3-[({2-[(4-cyano-3-hydroxyphenyl)amino]-5-(trifluoromethyl)pyrlmldin-4-yl}amino)methyl]pyrazin-2-yl}-N-methylmethane-sulfonamide]
